According to ChEMBL document CHEMBL1145947, “Generation of bis-cationic heterocyclic inhibitors of Bacillus subtilis HPr kinase/phosphatase from a ditopic dynamic combinatorial library” (J Med Chem, 2003):

Columns and labels:
HPr kinase/phosphorylase [1] = target: T1, HPr kinase/phosphorylase (Bacillus subtilis (strain 168), UniProt O34483); experiment: Inhibition of bifunctional enzyme HPr kinase/phosphatase from Bacillus subtilis at pH 7.0 and hill coefficient of 1.4
T1 sequence (O34483 whole entry): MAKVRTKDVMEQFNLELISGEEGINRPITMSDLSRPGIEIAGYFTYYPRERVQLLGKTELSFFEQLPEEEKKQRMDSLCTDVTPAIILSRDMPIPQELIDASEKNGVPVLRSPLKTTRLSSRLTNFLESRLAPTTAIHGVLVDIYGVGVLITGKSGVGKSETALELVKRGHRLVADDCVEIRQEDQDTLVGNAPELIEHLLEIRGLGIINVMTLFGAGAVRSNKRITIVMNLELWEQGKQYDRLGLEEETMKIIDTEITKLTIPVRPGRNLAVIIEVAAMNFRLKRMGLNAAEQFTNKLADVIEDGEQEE

HPr kinase/phosphorylase [2] = target: T1, HPr kinase/phosphorylase; experiment: Inhibition of bifunctional enzyme HPr kinase/phosphatase from Bacillus subtilis at pH 8.0 and hill coefficient of 2.9

Structure (SMILES): N=c1n(CC(=O)N/N=C/c2ccc(/C=N/NC(=O)Cn3c(=N)n(Cc4ccccc4)c4ccccc43)cc2)c2ccccc2n1Cc1ccccc1
- IC50 (HPr kinase/phosphorylase [1]): 17 µM
- IC50 (HPr kinase/phosphorylase [2]): 18 µM
